Results taken from patent US11242334B2, “Heterocyclic compounds as kinase inhibitors, compositions comprising the heterocyclic compound, and methods of use thereof” (JS INNOPHARM (SHANGHAI) LTD, priority 2017, dated 2022).

Assays:
human ERK2 = target: T1, human ERK2 (Homo sapiens, UniProt P28482); assay: LanthaScreen TR-FRET enzymatic assay, ERK2; settings: IC50 values of ERK2 biochemical activity; 5 μM ATP, 400 nM ATF2-GFP substrate
T1 construct: recombinantly expressed as GST-tagged full-length protein purified from E. coli; GST; purchased Invitrogen PV3311; host or cells: E. coli
Protocol: Compounds were tested in a LanthaScreen™ time-resolved fluorescence energy transfer (TR-FRET) enzymatic assay from Invitrogen. The assay used human ERK2 (Mitogen Activated Kinase 1, Invitrogen, Cat. PV3311) recombinantly expressed as GST-tagged full-length protein purified from E. coli and activated in vitro with MAP2K1. The substrate was a recombinant truncated version (residues 19-96) of ATF2 fused with Green Fluorescent Protein (Invitrogen, Cat. PV4445). Test compounds were prepared and diluted in DMSO in 3-fold serial dilutions to 100× of the final testing concentrations. The compounds were then further diluted to 4× by the kinase reaction buffer (Invitrogen, Cat. PV3189). The enzymatic reaction for compound testing was performed in a white 384-well polypropylene plate (Packard, Cat. 6005214) with a total reaction volume of 10 μl containing 20 ng/ml ERK2, 400 nM substrate, and 5 μM ATP that is around its Km. The assay started with loading 2.5 μl of ERK2 diluted in kinase reaction buffer to wells, followed by addition of equal volume of 4× compounds for 15-min incubation at the room temperature for pre-treatment. The enzymatic reaction was initiated by addition of 5 μl of mixture of the substrate and ATP prepared in kinase reaction buffer. After one hour reaction, 10 μl mixture of EDTA (final 10 mM) and terbium-labeled anti-pATF2 (pThr71) antibody (final 2 nM) (Invitrogen, Cat. PV4451) prepared in TR-FRET antibody dilution buffer (Invitrogen, Cat. PV3574) was added to stop the enzymatic reaction and produce TR-FRET signals. After 30 minutes of incubation at room temperature, the plate was read in Tecan Infinite F200 Pro with the following settings: Excitation 340 nm (30)/Emission1 495 nm (10)/Emission2 520 nm (25). The TR-FRET values were dimensionless numbers that were calculated as the ratio of the acceptor ([…]) signal to the donor (Terbium) signal. Percent of control was calculated as the percentage of compound-treated vs 1% DMSO vehicle-treated. The dose-response curves were generated and the ICsos were calculated by nonlinear sigmoid curve fitting using GraphPad Prism.
The IC50 values of ERK2 biochemical activity for the examples disclosed herein are listed in Table 3, A: ≤10 nM; B: >10 nM and ≤50 nM; C: >50 nM and ≤100 nM; D.>100 nM.

Colo205 cell line = assay: Colo205 cell proliferation assay (MTT assay, WST-8 readout); assay type: cell-based; settings: Homo sapiens; IC50 values of growth inhibition in Colo 205 cells; 72 hours
Protocol: Compounds disclosed herein were tested for the inhibition of ERK2 by a Colo205 cell proliferation assay commonly known as MTT assay. In this assay, a complete media was prepared by adding 10% fetal bovine serum to RPMI-1640 medium (Life technology). Colon cancer cells (Colo205 cell line) were added to each of 88 wells of a 96 well plate at a seeding density of 5,000 cells/well/90 μL. The cells were allowed to attach to the plate by incubating at 37° C. for 24 hours. The compound was dissolved in DMSO (SIGMA). A solution of test compound was prepared in complete media by serial dilution to obtain the following concentrations: 500 μM, 150 μM, 50 μM, 15 μM, 5 μM, 1.5 μM, 0.5 μM, 0.15 μM and 0.05 μM. The test compound solution (10 μL) was added to each of 80 cell-containing wells. The final concentrations of the compound were following: 50 μM, 15 μM, 5 μM, 1.5 μM, 0.5 μM, 0.15 μM, 0.05 μM, 0.015 μM and 0.005 μM. The final concentration of DMSO is 0.5%. To the 8 remaining cell-containing wells, only complete media (containing 0.5% DMSO) was added to form a control group in order to measure maximal proliferation. To the remaining 8 empty wells, complete media was added to for a vehicle control group in order to measure background. The plates were incubated at 37° C. for 72 hours. 10 μL WST-8 solution (DOJINDO, Cell Counting KIT-8) was added to each well. The plates were further incubated at 37° C. for 2 hours, and then read for the absorbance using a microplate reader at 450 nm.
The IC50 values of growth inhibition in Colo 205 cells for Compounds disclosed are listed in Table 3, A′: ≤0.5 μM; B′: >0.5 μM and ≤1 μM; C′: >1.0 μM and ≤5 uM; D′: >5 μM.

T1 sequence (P28482 whole entry): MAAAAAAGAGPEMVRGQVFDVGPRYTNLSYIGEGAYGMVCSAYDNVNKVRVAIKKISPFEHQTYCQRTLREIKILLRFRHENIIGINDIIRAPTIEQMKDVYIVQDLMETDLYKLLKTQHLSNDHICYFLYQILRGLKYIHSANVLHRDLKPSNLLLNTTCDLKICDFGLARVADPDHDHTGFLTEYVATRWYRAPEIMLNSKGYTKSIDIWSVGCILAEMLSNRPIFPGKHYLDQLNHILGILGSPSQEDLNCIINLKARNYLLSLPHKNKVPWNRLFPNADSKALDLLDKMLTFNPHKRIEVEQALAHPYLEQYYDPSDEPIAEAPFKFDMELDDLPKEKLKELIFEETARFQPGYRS

Compound: O=c1cc(-c2ccc3[nH]ncc3c2)ccn1[C@H](CO)c1cccc(Cl)c1 [Example 22, (S)-1-(1-(3-chlorophenyl)-2-hydroxyethyl)-4-(1H-indazol-5-yl)pyridin-2(1H)-one]
- IC50 (human ERK2): 10 to 50 nM
- IC50 (Colo205 cell line): > 5000 nM

Compound: CCc1n[nH]c2ccc(-c3ccn([C@H](CO)c4cccc(Cl)c4)c(=O)c3)cc12 [Example 23, (S)-1-(1-(3-chlorophenyl)-2-hydroxyethyl)-4-(3-ethyl-1H-indazol-5-yl)pyridin-2(1H)-one]
- IC50 (human ERK2): 50 to 100 nM
- IC50 (Colo205 cell line): 1000 to 5000 nM

Compound: Cc1cc(-c2n[nH]c3ncc(-c4ccn([C@H](CO)c5ccc(Cl)c(F)c5)c(=O)c4)cc23)ccn1 [Example 24, (S)-1-(1-(4-chloro-3-fluorophenyl)-2-hydroxyethyl)-4-(3-(2-methylpyridin-4-yl)-1H-pyrazolo[3,4-b]pyridin-5-yl)pyridin-2(1H)-one]
- IC50 (human ERK2): 50 to 100 nM
- IC50 (Colo205 cell line): 1000 to 5000 nM

Compound: Cc1cc(-c2n[nH]c3ccc(-c4ccn([C@H](CO)c5cc(F)cc(Br)c5)c(=O)c4)cc23)ccn1 [Example 26, (S)-1-(1-(3-bromo-5-fluorophenyl)-2-hydroxyethyl)-4-(3-(2-methylpyridin-4-yl)-1H-indazol-5-yl)pyridin-2(1H)-one]
- IC50 (human ERK2): < 10 nM
- IC50 (Colo205 cell line): ≤ 500 nM

Compound: O=c1cc(-c2ccc3[nH]nc(N4CCC(O)C4)c3c2)ccn1[C@H](CO)c1cccc(Cl)c1 (stereo partly drawn) [Example 27, 1-((S)-1-(3-chlorophenyl)-2-hydroxyethyl)-4-(3-(3-hydroxypyrrolidin-1-yl)-1H-indazol-5-yl)pyridin-2(1H)-one]
- IC50 (human ERK2): < 10 nM
- IC50 (Colo205 cell line): 1000 to 5000 nM

Compound: Cc1cc(-c2n[nH]c3ccc(-c4ccn([C@H](CO)c5cc(Cl)ccc5F)c(=O)c4)cc23)ccn1 [Example 28, (S)-1-(1-(5-chloro-2-fluorophenyl)-2-hydroxyethyl)-4-(3-(2-methylpyridin-4-yl)-1H-indazol-5-yl)pyridin-2(1H)-one]
- IC50 (human ERK2): < 10 nM
- IC50 (Colo205 cell line): ≤ 500 nM

Compound: Cc1cc(-c2n[nH]c3ccc(-c4cc[nH]c(=O)c4)cc23)ccn1 [Example 29, 4-(3-(2-methylpyridin-4-yl)-1H-indazol-5-yl)pyridin-2(1H)-one]
- IC50 (human ERK2): < 10 nM
- IC50 (Colo205 cell line): 1000 to 5000 nM

Compound: Cc1cc(-c2n[nH]c3ccc(-c4ccn([C@H](CO)c5ccc(F)c(Cl)c5)c(=O)c4)cc23)ccn1 [Example 30, (S)-1-(1-(3-chloro-4-fluorophenyl)-2-hydroxyethyl)-4-(3-(2-methylpyridin-4-yl)-1H-indazol-5-yl)pyridin-2(1H)-one]
- IC50 (human ERK2): < 10 nM
- IC50 (Colo205 cell line): ≤ 500 nM

Compound: Cc1cc(-c2n[nH]c3ccc(-c4ccn([C@@H](CO)c5cccc(Cl)c5)c(=O)c4)cc23)ccn1 [Example 31, (R)-1-(1-(3-chlorophenyl)-2-hydroxyethyl)-4-(3-(2-methylpyridin-4-yl)-1H-indazol-5-yl)pyridin-2(1H)-one]
- IC50 (human ERK2): < 10 nM
- IC50 (Colo205 cell line): 1000 to 5000 nM

Compound: Cc1cc(-c2n[nH]c3ccc(-c4ccn([C@H](CO)c5ccc(Cl)cc5)c(=O)c4)cc23)ccn1 [Example 32, (S)-1-(1-(4-chlorophenyl)-2-hydroxyethyl)-4-(3-(2-methylpyridin-4-yl)-1H-indazol-5-yl)pyridin-2(1H)-one]
- IC50 (human ERK2): < 10 nM
- IC50 (Colo205 cell line): ≤ 500 nM

Compound: Cc1cc(-c2n[nH]c3ccc(-c4ccn([C@H](CO)c5cc(F)cc(C(F)(F)F)c5)c(=O)c4)cc23)ccn1 [Example 33, (S)-1-(1-(3-fluoro-5-(trifluoromethyl)phenyl)-2-hydroxyethyl)-4-(3-(2-methylpyridin-4-yl)-1H-indazol-5-yl)pyridin-2(1H)-one]
- IC50 (human ERK2): < 10 nM
- IC50 (Colo205 cell line): ≤ 500 nM

Compound: CC(C)Oc1ccc(-c2n[nH]c3ccc(-c4ccn([C@H](CO)c5ccc(F)c(Cl)c5)c(=O)c4)cc23)cn1 [Example 34, (S)-1-(1-(3-chloro-4-fluorophenyl)-2-hydroxyethyl)-4-(3-(6-isopropoxypyridin-3-yl)-1H-indazol-5-yl)pyridin-2(1H)-one]
- IC50 (human ERK2): 10 to 50 nM
- IC50 (Colo205 cell line): 1000 to 5000 nM

Compound: Cc1cc(-c2n[nH]c3ccc(-c4ccn([C@H](CO)c5cccc(Cl)c5F)c(=O)c4)cc23)ccn1 [Example 35, (S)-1-(1-(3-chloro-2-fluorophenyl)-2-hydroxyethyl)-4-(3-(2-methylpyridin-4-yl)-1H-indazol-5-yl)pyridin-2(1H)-one]
- IC50 (human ERK2): < 10 nM
- IC50 (Colo205 cell line): ≤ 500 nM

Compound: Cc1cc(-c2n[nH]c3ccc(-c4ccn([C@H](CO)c5ccc(F)c(Br)c5)c(=O)c4)cc23)ccn1 [Example 36, (S)-1-(1-(3-bromo-4-fluorophenyl)-2-hydroxyethyl)-4-(3-(2-methylpyridin-4-yl)-1H-indazol-5-yl)pyridin-2(1H)-one]
- IC50 (human ERK2): < 10 nM
- IC50 (Colo205 cell line): ≤ 500 nM

Compound: Cn1cc(-c2n[nH]c3ccc(-c4ccn([C@H](CO)c5ccc(F)c(Cl)c5)c(=O)c4)cc23)cn1 [Example 37, (S)-1-(1-(3-chloro-4-fluorophenyl)-2-hydroxyethyl)-4-(3-(1-methyl-1H-pyrazol-4-yl)-1H-indazol-5-yl)pyridin-2(1H)-one]
- IC50 (human ERK2): < 10 nM
- IC50 (Colo205 cell line): ≤ 500 nM

Compound: Cn1cc(-c2n[nH]c3ccc(-c4ccn([C@H](CO)c5ccc(Cl)c(F)c5)c(=O)c4)cc23)cn1 [Example 38, (S)-1-(1-(4-chloro-3-fluorophenyl)-2-hydroxyethyl)-4-(3-(1-methyl-1H-pyrazol-4-yl)-1H-indazol-5-yl)pyridin-2(1H)-one]
- IC50 (human ERK2): < 10 nM
- IC50 (Colo205 cell line): 500 to 1000 nM

Compound: Cn1cc(-c2n[nH]c3ccc(-c4ccn([C@H](CO)c5cc(F)cc(Br)c5)c(=O)c4)cc23)cn1 [Example 39, (S)-1-(1-(3-bromo-5-fluorophenyl)-2-hydroxyethyl)-4-(3-(1-methyl-1H-pyrazol-4-yl)-1H-indazol-5-yl)pyridin-2(1H)-one]
- IC50 (human ERK2): < 10 nM
- IC50 (Colo205 cell line): ≤ 500 nM

Compound: CC(C)Oc1ccc(-c2n[nH]c3ccc(-c4ccn([C@H](CO)c5cc(F)cc(Br)c5)c(=O)c4)cc23)cn1 [Example 40, (S)-1-(1-(3-bromo-5-fluorophenyl)-2-hydroxyethyl)-4-(3-(6-isopropoxypyridin-3-yl)-1H-indazol-5-yl)pyridin-2(1H)-one]
- IC50 (human ERK2): < 10 nM
- IC50 (Colo205 cell line): ≤ 500 nM

Compound: Cn1cc(-c2n[nH]c3ccc(-c4ccn([C@H](CO)c5cc(F)cc(C(F)(F)F)c5)c(=O)c4)cc23)cn1 [Example 41, (S)-1-(1-(3-fluoro-5-(trifluoromethyl)phenyl)-2-hydroxyethyl)-4-(3-(1-methyl-1H-pyrazol-4-yl)-1H-indazol-5-yl)pyridin-2(1H)-one]
- IC50 (human ERK2): < 10 nM
- IC50 (Colo205 cell line): ≤ 500 nM

Compound: Cn1cc(-c2n[nH]c3ccc(-c4ccn([C@H](CO)c5cccc(C(F)(F)F)c5)c(=O)c4)cc23)cn1 [Example 42, (S)-1-(2-hydroxy-1-(3-(trifluoromethyl)phenyl)ethyl)-4-(3-(1-methyl-1H-pyrazol-4-yl)-1H-indazol-5-yl)pyridin-2(1H)-one]
- IC50 (human ERK2): < 10 nM
- IC50 (Colo205 cell line): 500 to 1000 nM

Compound: CC(C)Oc1ccc(-c2n[nH]c3ccc(-c4ccn([C@H](CO)c5cccc(C(F)(F)F)c5)c(=O)c4)cc23)cn1 [Example 43, (S)-1-(2-hydroxy-1-(3-(trifluoromethyl)phenyl)ethyl)-4-(3-(6-isopropoxypyridin-3-yl)-1H-indazol-5-yl)pyridin-2(1H)-one]
- IC50 (human ERK2): < 10 nM
- IC50 (Colo205 cell line): 1000 to 5000 nM
